In PMC10879502, “Linking ATP and allosteric sites to achieve superadditive binding with bivalent EGFR kinase inhibitors” (Communications Chemistry, 2024):

Columns and labels:
Test in all cases: KINOMEscan
Format in all cases: binding
Settings in all cases: 1 μM
[1] = biological target: RSK2(Kin.Dom.1-N-terminal) (Homo sapiens, UniProt P51812)
TRKC = biological target: T1, TRKC (Homo sapiens, UniProt Q16288)
T1 construct: purchased Eurofins DiscoverX Corporation

NEK10 = biological target: T2, NEK10 (Homo sapiens, UniProt Q6ZWH5)
T2 construct: purchased Eurofins DiscoverX Corporation

ERK2 = ERK2 (Homo sapiens, UniProt P28482)
FGFR1 = FGFR1 (Homo sapiens, UniProt P11362)
FLT3(ITD+F691L) = system: FLT3(ITD+F691L)
GRK3 = biological target: T3, GRK3 (Homo sapiens, UniProt P35626)
T3 construct: purchased Eurofins DiscoverX Corporation

TAK1 = biological target: T4, TAK1 (Homo sapiens, UniProt O43318)
T4 construct: purchased Eurofins DiscoverX Corporation

PCTK1 = PCTK1 (Homo sapiens, UniProt Q00536)
HCK = biological target: T5, HCK (Homo sapiens, UniProt P08631)
T5 construct: purchased Eurofins DiscoverX Corporation

PYK2 = PYK2 (Homo sapiens, UniProt Q14289)
PHKG2 = PHKG2 (Homo sapiens, UniProt P15735)
CDK8 = CDK8 (Homo sapiens, UniProt P49336)
AMPK-alpha2 = AMPK-alpha2 (Homo sapiens, UniProt P54646)
ACVR1B = ACVR1B (Homo sapiens, UniProt P36896)
BRAF = biological target: T6, BRAF (Homo sapiens, UniProt P15056)
T6 construct: purchased Eurofins DiscoverX Corporation (KINOMEscan)

BRAF(V600E) = biological target: T7, BRAF(V600E) (Homo sapiens, UniProt P15056, V600E)
T7 construct: purchased Eurofins DiscoverX Corporation (KINOMEscan)

RIOK1 = RIOK1 (Homo sapiens, UniProt Q9BRS2)
VEGFR2 = VEGFR2 (Homo sapiens, UniProt P35968)
OSR1 = OSR1 (Homo sapiens, UniProt O95747)
[2] = biological target: T8, ABL1(Q252H)-phosphorylated (Homo sapiens, UniProt P00519, Q252H)
T8 construct: purchased Eurofins DiscoverX Corporation

IKK-beta = biological target: T9, IKK-beta (Homo sapiens, UniProt O14920)
T9 construct: purchased Eurofins DiscoverX (KINOMEscan)

IKK-alpha = biological target: T10, IKK-alpha (Homo sapiens, UniProt O15111)
T10 construct: purchased Eurofins DiscoverX (KINOMEscan)

LYN = biological target: T11, LYN (Homo sapiens, UniProt P07948)
T11 construct: purchased Eurofins DiscoverX Corporation

p38-gamma = p38-gamma (Homo sapiens, UniProt P53778)
MAP3K1 = biological target: T12, MAP3K1 (Homo sapiens, UniProt Q13233)
T12 construct: purchased Eurofins DiscoverX Corporation

DLK = biological target: T13, DLK (Homo sapiens, UniProt Q12852)
T13 construct: purchased Eurofins DiscoverX Corporation

MELK = biological target: T14, MELK (Homo sapiens, UniProt Q14680)
T14 construct: purchased Eurofins DiscoverX Corporation

HUNK = biological target: T15, HUNK (Homo sapiens, UniProt P57058)
T15 construct: purchased Eurofins DiscoverX (KINOMEscan)

CSNK1G2 = biological target: T16, CSNK1G2 (Homo sapiens, UniProt P78368)
T16 construct: purchased Eurofins DiscoverX Corporation

ASK1 = ASK1 (Homo sapiens, UniProt Q99683)
PIK3CA(Q546K) = PIK3CA(Q546K) (Homo sapiens, UniProt P42336, Q546K)
[3] = biological target: RSK1(Kin.Dom.1-N-terminal) (Homo sapiens, UniProt Q15418)
CHEK1 = CHEK1 (Homo sapiens, UniProt O14757)
STK39 = biological target: T17, STK39 (Homo sapiens, UniProt Q9UEW8)
T17 construct: purchased Eurofins DiscoverX Corporation

MET(Y1235D) = biological target: T18, MET(Y1235D) (Homo sapiens, UniProt P08581, Y1235D)
T18 construct: purchased Eurofins DiscoverX Corporation

CAMK2G = biological target: T19, CAMK2G (Homo sapiens, UniProt Q13555)
T19 construct: purchased Eurofins DiscoverX Corporation (KINOMEscan)

ULK1 = ULK1 (Homo sapiens, UniProt O75385)
TGFBR2 = biological target: T20, TGFBR2 (Homo sapiens, UniProt P37173)
T20 construct: purchased Eurofins DiscoverX Corporation

HIPK2 = biological target: T21, HIPK2 (Homo sapiens, UniProt Q9H2X6)
T21 construct: purchased Eurofins DiscoverX Corporation

PRKR = PRKR (Homo sapiens, UniProt P19525)
Sequence of PRKR (P19525 whole entry): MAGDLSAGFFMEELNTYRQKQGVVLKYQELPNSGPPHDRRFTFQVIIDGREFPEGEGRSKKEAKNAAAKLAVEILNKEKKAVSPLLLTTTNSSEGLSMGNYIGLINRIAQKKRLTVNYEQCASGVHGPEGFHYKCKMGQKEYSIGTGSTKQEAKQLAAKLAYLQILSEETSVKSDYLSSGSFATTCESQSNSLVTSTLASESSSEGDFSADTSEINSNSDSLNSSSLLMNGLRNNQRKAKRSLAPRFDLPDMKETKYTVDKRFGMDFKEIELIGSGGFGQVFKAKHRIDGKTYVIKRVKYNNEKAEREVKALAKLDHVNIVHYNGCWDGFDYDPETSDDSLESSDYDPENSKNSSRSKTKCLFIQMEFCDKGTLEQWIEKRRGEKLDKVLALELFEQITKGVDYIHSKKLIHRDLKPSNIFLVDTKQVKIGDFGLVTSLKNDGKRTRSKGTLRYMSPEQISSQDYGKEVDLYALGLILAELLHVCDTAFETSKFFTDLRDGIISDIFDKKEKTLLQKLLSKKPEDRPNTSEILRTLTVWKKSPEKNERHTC

T19 sequence (Q13555 whole entry): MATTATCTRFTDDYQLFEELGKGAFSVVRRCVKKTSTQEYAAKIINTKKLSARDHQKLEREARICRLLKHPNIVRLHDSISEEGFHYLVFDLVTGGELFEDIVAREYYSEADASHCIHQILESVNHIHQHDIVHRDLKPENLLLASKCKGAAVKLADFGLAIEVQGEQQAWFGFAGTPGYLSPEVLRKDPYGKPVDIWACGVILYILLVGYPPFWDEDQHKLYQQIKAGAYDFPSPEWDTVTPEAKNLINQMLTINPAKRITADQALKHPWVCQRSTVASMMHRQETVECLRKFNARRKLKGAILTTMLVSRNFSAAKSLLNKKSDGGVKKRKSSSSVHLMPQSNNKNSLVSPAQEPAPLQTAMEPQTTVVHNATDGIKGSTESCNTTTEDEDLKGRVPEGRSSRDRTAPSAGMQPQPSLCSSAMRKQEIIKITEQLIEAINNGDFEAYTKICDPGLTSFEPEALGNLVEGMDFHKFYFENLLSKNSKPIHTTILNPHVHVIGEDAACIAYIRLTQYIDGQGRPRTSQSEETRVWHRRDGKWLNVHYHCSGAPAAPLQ
T9 sequence (O14920 whole entry): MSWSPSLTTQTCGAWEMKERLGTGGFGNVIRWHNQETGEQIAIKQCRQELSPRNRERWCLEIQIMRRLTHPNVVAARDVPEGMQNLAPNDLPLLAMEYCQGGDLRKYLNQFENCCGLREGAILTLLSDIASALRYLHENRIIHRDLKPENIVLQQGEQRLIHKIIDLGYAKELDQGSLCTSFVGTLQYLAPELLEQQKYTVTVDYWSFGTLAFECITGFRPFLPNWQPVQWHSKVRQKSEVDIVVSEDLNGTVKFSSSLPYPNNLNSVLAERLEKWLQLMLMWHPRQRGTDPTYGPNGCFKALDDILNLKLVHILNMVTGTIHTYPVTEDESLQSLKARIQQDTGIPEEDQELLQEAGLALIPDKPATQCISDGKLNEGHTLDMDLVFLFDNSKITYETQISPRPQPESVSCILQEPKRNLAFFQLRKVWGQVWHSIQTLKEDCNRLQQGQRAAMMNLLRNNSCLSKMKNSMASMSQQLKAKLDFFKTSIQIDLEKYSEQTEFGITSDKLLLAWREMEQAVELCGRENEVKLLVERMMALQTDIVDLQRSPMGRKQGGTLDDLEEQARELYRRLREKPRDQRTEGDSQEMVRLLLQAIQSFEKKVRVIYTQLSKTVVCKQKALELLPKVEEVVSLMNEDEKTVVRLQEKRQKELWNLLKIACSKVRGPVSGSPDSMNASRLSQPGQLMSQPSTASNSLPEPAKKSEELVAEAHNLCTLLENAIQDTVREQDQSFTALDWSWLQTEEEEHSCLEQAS
Sequence of PCTK1 (Q00536 whole entry): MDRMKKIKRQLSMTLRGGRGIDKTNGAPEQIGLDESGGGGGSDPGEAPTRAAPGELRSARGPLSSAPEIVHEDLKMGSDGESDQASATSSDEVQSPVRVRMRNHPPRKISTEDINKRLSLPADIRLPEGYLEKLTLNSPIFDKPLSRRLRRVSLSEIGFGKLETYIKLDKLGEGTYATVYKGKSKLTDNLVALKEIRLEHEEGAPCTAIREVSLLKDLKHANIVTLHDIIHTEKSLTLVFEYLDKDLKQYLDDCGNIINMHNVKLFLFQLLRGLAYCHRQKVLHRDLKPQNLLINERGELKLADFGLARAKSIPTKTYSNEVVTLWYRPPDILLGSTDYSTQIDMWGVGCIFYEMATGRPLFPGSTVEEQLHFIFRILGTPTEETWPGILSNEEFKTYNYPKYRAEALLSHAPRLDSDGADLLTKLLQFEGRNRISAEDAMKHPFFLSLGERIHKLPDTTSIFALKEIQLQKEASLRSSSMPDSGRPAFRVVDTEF
T3 sequence (P35626 whole entry): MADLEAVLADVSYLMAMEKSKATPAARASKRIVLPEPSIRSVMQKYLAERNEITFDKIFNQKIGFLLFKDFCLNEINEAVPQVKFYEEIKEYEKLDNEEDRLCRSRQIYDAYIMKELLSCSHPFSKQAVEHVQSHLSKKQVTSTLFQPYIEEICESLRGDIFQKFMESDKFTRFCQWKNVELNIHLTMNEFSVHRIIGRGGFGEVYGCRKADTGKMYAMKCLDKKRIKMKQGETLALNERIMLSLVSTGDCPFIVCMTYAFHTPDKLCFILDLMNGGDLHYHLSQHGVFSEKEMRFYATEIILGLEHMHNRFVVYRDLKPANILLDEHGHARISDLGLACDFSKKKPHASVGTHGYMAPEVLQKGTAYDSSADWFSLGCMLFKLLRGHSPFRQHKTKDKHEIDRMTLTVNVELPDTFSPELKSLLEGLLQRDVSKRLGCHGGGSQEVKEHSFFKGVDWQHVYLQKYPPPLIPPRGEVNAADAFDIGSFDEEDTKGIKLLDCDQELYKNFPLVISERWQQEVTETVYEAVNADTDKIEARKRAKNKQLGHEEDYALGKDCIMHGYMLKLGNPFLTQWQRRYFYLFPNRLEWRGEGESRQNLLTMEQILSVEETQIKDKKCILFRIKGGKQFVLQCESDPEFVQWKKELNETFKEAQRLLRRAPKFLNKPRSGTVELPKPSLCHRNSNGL
T2 sequence (Q6ZWH5 whole entry): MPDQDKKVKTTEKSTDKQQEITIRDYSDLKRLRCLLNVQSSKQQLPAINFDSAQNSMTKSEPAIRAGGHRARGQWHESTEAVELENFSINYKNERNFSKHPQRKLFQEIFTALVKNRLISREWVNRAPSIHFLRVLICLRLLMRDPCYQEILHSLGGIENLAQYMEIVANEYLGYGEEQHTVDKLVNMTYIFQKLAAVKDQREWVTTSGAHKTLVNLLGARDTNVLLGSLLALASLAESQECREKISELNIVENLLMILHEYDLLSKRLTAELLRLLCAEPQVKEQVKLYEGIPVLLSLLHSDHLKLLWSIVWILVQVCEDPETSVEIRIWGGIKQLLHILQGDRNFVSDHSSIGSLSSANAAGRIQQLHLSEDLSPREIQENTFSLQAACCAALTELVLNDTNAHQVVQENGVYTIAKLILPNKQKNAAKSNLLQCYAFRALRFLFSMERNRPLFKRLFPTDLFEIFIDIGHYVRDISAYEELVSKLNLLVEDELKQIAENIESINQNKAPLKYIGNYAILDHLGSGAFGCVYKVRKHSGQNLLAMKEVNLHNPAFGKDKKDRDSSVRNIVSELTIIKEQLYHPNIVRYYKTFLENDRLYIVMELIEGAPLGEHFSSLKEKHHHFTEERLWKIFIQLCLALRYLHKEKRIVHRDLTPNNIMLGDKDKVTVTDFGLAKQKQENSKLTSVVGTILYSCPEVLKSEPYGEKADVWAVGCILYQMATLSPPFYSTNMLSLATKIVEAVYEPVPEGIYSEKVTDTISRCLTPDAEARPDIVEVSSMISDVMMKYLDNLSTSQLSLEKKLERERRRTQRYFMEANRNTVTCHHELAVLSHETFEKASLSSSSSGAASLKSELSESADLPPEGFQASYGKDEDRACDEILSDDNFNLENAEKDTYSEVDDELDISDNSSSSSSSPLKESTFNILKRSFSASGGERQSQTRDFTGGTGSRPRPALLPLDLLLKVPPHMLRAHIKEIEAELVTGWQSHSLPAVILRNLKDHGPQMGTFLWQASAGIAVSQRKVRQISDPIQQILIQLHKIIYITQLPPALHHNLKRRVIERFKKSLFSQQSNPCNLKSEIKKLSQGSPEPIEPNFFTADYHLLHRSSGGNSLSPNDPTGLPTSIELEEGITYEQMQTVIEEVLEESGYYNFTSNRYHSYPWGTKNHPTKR
T4 sequence (O43318 whole entry): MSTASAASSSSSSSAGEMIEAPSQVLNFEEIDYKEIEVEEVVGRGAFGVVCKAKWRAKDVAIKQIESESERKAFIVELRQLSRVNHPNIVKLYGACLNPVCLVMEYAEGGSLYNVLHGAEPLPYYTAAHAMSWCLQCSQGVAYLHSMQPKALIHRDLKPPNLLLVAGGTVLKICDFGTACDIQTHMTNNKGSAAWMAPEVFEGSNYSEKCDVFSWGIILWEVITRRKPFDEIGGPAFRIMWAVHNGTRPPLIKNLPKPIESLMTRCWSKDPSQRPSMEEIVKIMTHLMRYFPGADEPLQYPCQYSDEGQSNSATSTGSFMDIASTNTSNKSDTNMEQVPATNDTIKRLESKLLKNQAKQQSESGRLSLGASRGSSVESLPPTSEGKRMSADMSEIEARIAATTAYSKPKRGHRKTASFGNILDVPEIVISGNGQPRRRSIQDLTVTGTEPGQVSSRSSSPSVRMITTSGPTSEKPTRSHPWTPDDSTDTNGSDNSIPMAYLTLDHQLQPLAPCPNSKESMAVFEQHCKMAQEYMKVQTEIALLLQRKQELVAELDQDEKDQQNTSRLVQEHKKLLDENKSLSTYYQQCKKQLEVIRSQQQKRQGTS

In the case of C=CC(=O)Nc1ccc(OC)c(Nc2cc(-c3[nH]c(CC)nc3-c3cccc(NC(=O)c4cccc5c4NC(=O)c4ccccc4N5)c3)ccn2)c1 [Compound 4], the POC [1] is reported as 100% of control, the POC (TRKC) is reported as 87% of control and the POC (NEK10) is reported as 86% of control. The POC (ERK2) was 100% of control, the POC (FGFR1) was 86% of control and the POC (FLT3(ITD+F691L)) was 79% of control. For the same molecule, the POC (GRK3) was 100% of control, the POC (TAK1) was 95% of control and the POC (PCTK1) was 100% of control. The POC (HCK) was 14% of control, the POC (PYK2) was 100% of control and the POC (PHKG2) was 73% of control. For the same molecule, the POC (CDK8) was 81% of control, the POC (AMPK-alpha2) was 56% of control and the POC (ACVR1B) was 85% of control. The POC (BRAF) was 90% of control, the POC (BRAF(V600E)) was 100% of control and the POC (RIOK1) was 100% of control. The POC (VEGFR2) was 100% of control, the POC (OSR1) was 89% of control and the POC [2] was 90% of control. The POC (IKK-beta) was 88% of control, the POC (IKK-alpha) was 100% of control and the POC (LYN) was 22% of control. For the same molecule, the POC (p38-gamma) was 100% of control, the POC (MAP3K1) was 100% of control and the POC (DLK) was 100% of control. For the same molecule, the POC (MELK) was 100% of control, the POC (HUNK) was 32% of control and the POC (CSNK1G2) was 91% of control. The POC (ASK1) was 100% of control, the POC (PIK3CA(Q546K)) was 100% of control and the POC [3] was 4.7% of control. For the same molecule, the POC (CHEK1) was 100% of control, the POC (STK39) was 85% of control and the POC (MET(Y1235D)) was 97% of control. For the same molecule, the POC (CAMK2G) was 100% of control, the POC (ULK1) was 100% of control and the POC (TGFBR2) was 75% of control. The POC (HIPK2) was 100% of control and the POC (PRKR) was 87% of control.
